According to patent US10029984B2, “Mono- or di-substituted indole derivatives as dengue viral replication inhibitors” (Janssen Pharmaceuticals, Inc., priority 2015, dated 2018):

How the values were obtained:
DENV-2 16681 strain = assay: DENV-2 antiviral assay (eGFP-labeled virus in Vero cells); format: cell-based, Dengue virus; settings: DENV-2 16681 eGFP, MOI 0.5, 3 days
Procedure: The antiviral activity of all the compounds of the invention was tested against DENV-2 16681 strain which was labeled with enhanced green fluorescent protein (eGPF; Table 1). The culture medium consists of minimal essential medium supplemented with 2% of heat-inactivated fetal calf serum, 0.04% gentamycin (50 mg/mL) and 2 mM of L-glutamine. Vero cells, obtained from ECACC, were suspended in culture medium and 25 μL was added to 384-well plates (2500 cells/well), which already contain the antiviral compounds. Typically, these plates contain a 4-fold serial dilution of 9 dilution steps of the test compound at 200 times the final concentration in 100% DMSO (200 nL). In addition, each compound concentration is tested in quadruplicate (final concentration range: 25 μM-0.00038 μM). Finally, each plate contains wells which are assigned as virus controls (containing cells and virus in the absence of compound), cell controls (containing cells in the absence of virus and compound) and medium controls (containing medium in the absence of cells, virus and compounds). To the wells assigned as medium control, 25 μL of culture medium was added instead of Vero cells. Once the cells were added to the plates, the plates were incubated for 30 minutes at room temperature to allow the cells to distribute evenly within the wells. Next, the plates were incubated in a fully humidified incubator (37° C., 5% CO2) until the next day. Then, DENV-2 strain 16681, labeled with eGFP, was added at a multiplicity of infection (MOI) of 0.5. Therefore, 15 μL of virus suspension was added to all the wells containing test compound and to the wells assigned as virus control. In parallel, 15 μL of culture medium was added to the medium and cell controls. Next, the plates were incubated for 3 days in a fully humidified incubator (37° C., 5% CO2). At the day of the read out, the eGFP fluorescence was measured using an automated fluorescence microscope at 488 nm (blue laser). Using an in-house LIMS system, inhibition dose response curves for each compound were calculated and the half maximal effective concentration (EC50) was determined. Therefore, the percent inhibition (I) for every test concentration is calculated using the following formula: I=100*(ST−SCC)/(SVC−SCC); ST, SCC and SVC are the amount of eGFP signal in the test compound, cell control and virus control wells, respectively. The EC50 represents the concentration of a compound at which the virus replication is inhibited with 50%, as measured by a 50% reduction of the eGFP fluorescent intensity compared to the virus control. The EC50 is calculated using linear interpolation.

Vero cells = assay: in vitro; format: cell-based; settings: African green monkey
Procedure: (§1) In parallel, the toxicity of the compounds was assessed on the same plates. Once the read-out for the eGFP signal was done, 10 μL of resazurin, a cell viability stain, was added to all wells of the 384-well plates. The resazurin assay is based on the reduction of the blue resazurin by NADH, produced by the cells, into the highly fluorescent product, resorufin. The formation of pink fluorescent resorufin is directly related to the number of viable cells in the well. The plates were incubated for an additional 5 hours in a fully humidified incubator (37° C., 5% CO2). Next, the plates were measured on an Infinite reader (Tecan) using an excitation wavelength of 530 nm. The half maximal cytotoxic concentration (CC50) was also determined, defined as the concentration required to reduce the resazurin conversion by 50% compared to that of the cell control wells. Finally, the selectivity index (SI) was determined for the compounds, which was calculated as followed: SI=CC50/EC50.

in vitro = format: cell-based; settings: African green monkey, CC50
Procedure: as §1

COc1cc(NC(C(=O)c2c[nH]c3cc(F)c(F)cc23)c2ccc(F)cc2OC)cc(S(C)(=O)=O)c1 (single isomer, unassigned) [Enantiomer 7B, 1-(5,6-difluoro-1H-indol-3-yl)-2-(4-fluoro-2-methoxyphenyl)-2-((3-methoxy-5-(methylsulfonyl)phenyl)amino)ethanone]
EC50 (DENV-2 16681 strain; listed as 7B): 43 nM | CC50 (Vero cells): 9600 nM

COc1cc(NC(C(=O)c2c[nH]c3ccc(C)cc23)c2ccc(F)cc2OC)cc(S(C)(=O)=O)c1 (racemic) [Compound 15, 2-(4-fluoro-2-methoxyphenyl)-2-((3-methoxy-5-(methylsulfonyl)phenyl)amino)-1-(5-methyl-1H-indol-3-yl)ethanone]
EC50 (DENV-2 16681 strain; Dengue virus, DENV2, Vero, 72 h): 1.5 nM | CC50 (in vitro): 7800 nM

COc1cc(NC(C(=O)c2c[nH]c3c(C)c(F)ccc23)c2ccc(F)cc2OC)cc(S(C)(=O)=O)c1 (single isomer, unassigned) [Enantiomer 2B, 2-(4-fluoro-2-methoxyphenyl)-1-(6-fluoro-7-methyl-1H-indol-3-yl)-2-((3-methoxy-5-(methylsulfonyl)phenyl)amino)ethanone]
EC50 (DENV-2 16681 strain; listed as 2B): 55 nM | CC50 (Vero cells): 8000 nM

COc1cc(NC(C(=O)c2c[nH]c3cc(OC)c(C)cc23)c2ccc(F)cc2OC)cc(S(C)(=O)=O)c1 (single isomer, unassigned) [Enantiomer 10A, 2-(4-fluoro-2-methoxyphenyl)-2-((3-methoxy-5-(methylsulfonyl)phenyl)amino)-1-(6-methoxy-5-methyl-1H-indol-3-yl)ethanone]
EC50 (DENV-2 16681 strain; listed as 10A): 54 nM | CC50 (Vero cells): 18000 nM

COc1cc(NC(C(=O)c2c[nH]c3cc(F)c(C)cc23)c2ccc(F)cc2OC)cc(S(C)(=O)=O)c1 (single isomer, unassigned) [Enantiomer 14B, 2-(4-fluoro-2-methoxyphenyl)-1-(6-fluoro-5-methyl-1H-indol-3-yl)-2-((3-methoxy-5-(methylsulfonyl)phenyl)amino)ethanone]
EC50 (DENV-2 16681 strain; listed as 14B): 41 nM | CC50 (Vero cells): 11000 nM

COc1cc(NC(C(=O)c2c[nH]c3ccc(OC(F)(F)F)cc23)c2ccc(F)cc2OC)cc(S(C)(=O)=O)c1 (single isomer, unassigned) [Enantiomer 18B, 2-(4-fluoro-2-methoxyphenyl)-2-((3-methoxy-5-(methylsulfonyl)phenyl)amino)-1-(5-(trifluoromethoxy)-1H-indol-3-yl)ethanone]
EC50 (DENV-2 16681 strain; listed as 18B): 9.2 nM | CC50 (Vero cells): 10000 nM

COc1cc(NC(C(=O)c2c[nH]c3cc(OC)c(Cl)cc23)c2ccc(F)cc2OC)cc(S(C)(=O)=O)c1 (single isomer, unassigned) [Enantiomer 16B, 1-(5-chloro-6-methoxy-1H-indol-3-yl)-2-(4-fluoro-2-methoxyphenyl)-2-((3-methoxy-5-(methylsulfonyl)phenyl)amino)ethanone]
EC50 (DENV-2 16681 strain; listed as 16B): 13 nM | CC50 (Vero cells): 22000 nM

COc1cc(NC(C(=O)c2c[nH]c3c(C)c(Cl)ccc23)c2ccc(F)cc2OC)cc(S(C)(=O)=O)c1 (single isomer, unassigned) [Enantiomer 3B, 1-(6-chloro-7-methyl-1H-indol-3-yl)-2-(4-fluoro-2-methoxyphenyl)-2-((3-methoxy-5-(methylsulfonyl)phenyl)amino)ethanone]
EC50 (DENV-2 16681 strain; listed as 3B): 32 nM | CC50 (Vero cells): 11000 nM

COc1cc(NC(C(=O)c2c[nH]c3ccc(C)cc23)c2ccc(F)cc2OC)cc(S(C)(=O)=O)c1 (single isomer, unassigned) [Enantiomer 15B, 2-(4-fluoro-2-methoxyphenyl)-2-((3-methoxy-5-(methylsulfonyl)phenyl)amino)-1-(5-methyl-1H-indol-3-yl)ethanone]
EC50 (DENV-2 16681 strain; listed as 15B): 73 nM | CC50 (Vero cells): 17000 nM

COc1cc(NC(C(=O)c2c[nH]c3cc(C)c(F)cc23)c2ccc(F)cc2OC)cc(S(C)(=O)=O)c1 (single isomer, unassigned) [Enantiomer 9B, 2-(4-fluoro-2-methoxyphenyl)-1-(5-fluoro-6-methyl-1H-indol-3-yl)-2-((3-methoxy-5-(methylsulfonyl)phenyl)amino)ethanone]
EC50 (DENV-2 16681 strain; listed as 9B): 98 nM | CC50 (Vero cells): 21000 nM

COc1cc(NC(C(=O)c2c[nH]c3cc(OC)c(F)cc23)c2ccc(F)cc2OC)cc(S(C)(=O)=O)c1 (single isomer, unassigned) [Enantiomer 11B, 2-(4-fluoro-2-methoxyphenyl)-1-(5-fluoro-6-methoxy-1H-indol-3-yl)-2-((3-methoxy-5-(methylsulfonyl)phenyl)amino)ethanone]
EC50 (DENV-2 16681 strain; listed as 11B): 55 nM | CC50 (Vero cells): > 25000 nM

COc1cc(NC(C(=O)c2c[nH]c3c(C)cc(F)cc23)c2ccc(F)cc2OC)cc(S(C)(=O)=O)c1 (single isomer, unassigned) [Enantiomer 8B, 2-(4-fluoro-2-methoxyphenyl)-1-(5-fluoro-7-methyl-1H-indol-3-yl)-2-((3-methoxy-5-(methylsulfonyl)phenyl)amino)ethanone]
EC50 (DENV-2 16681 strain; listed as 8B): 240 nM | CC50 (Vero cells): 11000 nM

COc1cc(NC(C(=O)c2c[nH]c3cc(Cl)ccc23)c2ccc(F)cc2OC)cc(S(C)(=O)=O)c1 (single isomer, unassigned) [Enantiomer 4B, 1-(6-chloro-1H-indol-3-yl)-2-(4-fluoro-2-methoxyphenyl)-2-((3-methoxy-5-(methylsulfonyl)phenyl)amino)ethanone]
EC50 (DENV-2 16681 strain; listed as 4B): 18 nM | CC50 (Vero cells): 16000 nM

COc1cc(NC(C(=O)c2c[nH]c3cc(F)ccc23)c2ccc(F)cc2OC)cc(S(C)(=O)=O)c1 (single isomer, unassigned) [Enantiomer 1B, 1-(6-fluoro-1H-indol-3-yl)-2-(4-fluoro-2-methoxyphenyl)-2-((3-methoxy-5-(methylsulfonyl)phenyl)amino)ethanone]
EC50 (DENV-2 16681 strain; listed as 1B): 50 nM | CC50 (Vero cells): 12000 nM

COc1cc(NC(C(=O)c2c[nH]c3c(F)cc(C)cc23)c2ccc(F)cc2OC)cc(S(C)(=O)=O)c1 (single isomer, unassigned) [Enantiomer 6B, 2-(4-fluoro-2-methoxyphenyl)-1-(7-fluoro-5-methyl-1H-indol-3-yl)-2-((3-methoxy-5-(methylsulfonyl)phenyl)amino)ethanone]
EC50 (DENV-2 16681 strain; listed as 6B): 200 nM | CC50 (Vero cells): 12000 nM

COc1cc(NC(C(=O)c2c[nH]c3c(Cl)c(OC)ccc23)c2ccc(F)cc2OC)cc(S(C)(=O)=O)c1 (single isomer, unassigned) [Enantiomer 12B, 1-(7-chloro-6-methoxy-1H-indol-3-yl)-2-(4-fluoro-2-methoxyphenyl)-2-((3-methoxy-5-(methylsulfonyl)phenyl)amino)ethanone]
EC50 (DENV-2 16681 strain; listed as 12B): 21 nM | CC50 (Vero cells): > 25000 nM

COc1cc(NC(C(=O)c2c[nH]c3ccc(C(F)(F)F)cc23)c2ccc(F)cc2OC)cc(S(C)(=O)=O)c1 (single isomer, unassigned) [Enantiomer 17A, 2-(4-fluoro-2-methoxyphenyl)-2-((3-methoxy-5-(methylsulfonyl)phenyl)amino)-1-(5-(trifluoromethyl)-1H-indol-3-yl)ethanone]
EC50 (DENV-2 16681 strain; listed as 17A): 38 nM | CC50 (Vero cells): 14000 nM
